Source: PubChem BioAssay (NCI)
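Five compound concentrations were applied to cells in 96-well plates for 48 hours; endpoints were derived by simple linear interpolation of the resulting dose-response curve. GI50: concentration for 50% inhibition of growth. At the TGI there is no net growth.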

Experiments:
Experiment in all cases: NCI-60 cell line screen, 48 h
HS 578T breast = test system: HS 578T breast
IGROV1 ovarian = test system: IGROV1 ovarian
HOP-92 NSCLC = test system: HOP-92 NSCLC
BT-549 breast = test system: BT-549 breast
UO-31 renal = test system: UO-31 renal
SK-MEL-28 melanoma = test system: SK-MEL-28 melanoma
KM12 colon = test system: KM12 colon
HCT-116 colon = test system: HCT-116 colon
MCF7 breast = test system: MCF7 breast
U251 CNS = test system: U251 CNS
SN12C renal = test system: SN12C renal
NCI-H460 lung = test system: NCI-H460 lung
PC-3 prostate = test system: PC-3 prostate
T-47D breast = test system: T-47D breast
786-0 renal = test system: 786-0 renal
LOX IMVI melanoma = test system: LOX IMVI melanoma
OVCAR-4 ovarian = test system: OVCAR-4 ovarian
HOP-62 NSCLC = test system: HOP-62 NSCLC
SF-268 CNS = test system: SF-268 CNS
TK-10 renal = test system: TK-10 renal
ACHN renal = test system: ACHN renal
HT29 colon = test system: HT29 colon
SR leukemia = test system: SR leukemia
RXF 393 renal = test system: RXF 393 renal
EKVX NSCLC = test system: EKVX NSCLC
RPMI-8226 leukemia = test system: RPMI-8226 leukemia
OVCAR-3 ovarian = test system: OVCAR-3 ovarian
HL-60(TB) leukemia = test system: HL-60(TB) leukemia
HCT-15 colon = test system: HCT-15 colon
A549 NSCLC = test system: A549 NSCLC
NCI-H23 lung = test system: NCI-H23 lung
UACC-257 melanoma = test system: UACC-257 melanoma
SW-620 colon = test system: SW-620 colon
UACC-62 melanoma = test system: UACC-62 melanoma
OVCAR-8 ovarian = test system: OVCAR-8 ovarian
MOLT-4 leukemia = test system: MOLT-4 leukemia
M14 melanoma = test system: M14 melanoma
SNB-75 CNS = test system: SNB-75 CNS
K-562 leukemia = test system: K-562 leukemia
CAKI-1 renal = test system: CAKI-1 renal
MALME-3M melanoma = test system: MALME-3M melanoma
NCI-H226 lung = test system: NCI-H226 lung
HCC-2998 colon = test system: HCC-2998 colon
OVCAR-5 ovarian = test system: OVCAR-5 ovarian
COLO 205 colon = test system: COLO 205 colon
CCRF-CEM leukemia = test system: CCRF-CEM leukemia
DU-145 prostate = test system: DU-145 prostate
SK-OV-3 ovarian = test system: SK-OV-3 ovarian
SF-539 CNS = test system: SF-539 CNS
MDA-MB-435 = test system: MDA-MB-435
SK-MEL-2 melanoma = test system: SK-MEL-2 melanoma
SNB-19 CNS = test system: SNB-19 CNS
NCI-H522 lung = test system: NCI-H522 lung
MDA-N = test system: MDA-N
NCI/ADR-RES ovarian = test system: NCI/ADR-RES ovarian
A498 renal = test system: A498 renal
SF-295 CNS = test system: SF-295 CNS
SK-MEL-5 melanoma = test system: SK-MEL-5 melanoma
MDA-MB-231 breast = test system: MDA-MB-231 breast
DLD-1 colon = test system: DLD-1 colon
DMS 114 small cell lung = test system: DMS 114 small cell lung
LXFL 529 NSCLC = test system: LXFL 529 NSCLC
SNB-78 CNS = test system: SNB-78 CNS
DMS 273 small cell lung = test system: DMS 273 small cell lung
M19-MEL melanoma = test system: M19-MEL melanoma
KM20L2 colon = test system: KM20L2 colon

COc1cccc(C2c3cc4c(cc3OC(C)(O)C2C)OCO4)c1O (centres undefined)
TGI (HS 578T breast): 9.94 µM | TGI (IGROV1 ovarian): 69.2 µM | TGI (HOP-92 NSCLC): 47.3 µM | TGI (BT-549 breast): 52.8 µM | TGI (UO-31 renal): 52.6 µM | TGI (SK-MEL-28 melanoma): > 100 µM | TGI (KM12 colon): 36.6 µM | TGI (HCT-116 colon): 19.7 µM | TGI (MCF7 breast): 49.6 µM | TGI (U251 CNS): 21.1 µM | TGI (SN12C renal): 62.3 µM | TGI (NCI-H460 lung): 30.6 µM | TGI (PC-3 prostate): > 100 µM | TGI (T-47D breast): 13.1 µM | TGI (786-0 renal): 68.5 µM | TGI (LOX IMVI melanoma): 50.4 µM | TGI (OVCAR-4 ovarian): > 96.1 µM | TGI (HOP-62 NSCLC): 44.4 µM | TGI (SF-268 CNS): > 100 µM | TGI (TK-10 renal): 51 µM | TGI (ACHN renal): 79.1 µM | TGI (HT29 colon): 17.4 µM | TGI (SR leukemia): > 42.1 µM | TGI (RXF 393 renal): 34.1 µM | TGI (EKVX NSCLC): > 100 µM | TGI (RPMI-8226 leukemia): > 100 µM | TGI (OVCAR-3 ovarian): 8.48 µM | TGI (HL-60(TB) leukemia): 28 µM | TGI (HCT-15 colon): 27.8 µM | TGI (A549 NSCLC): 66.6 µM | TGI (NCI-H23 lung): 12.4 µM | TGI (UACC-257 melanoma): 47.1 µM | TGI (SW-620 colon): > 100 µM | TGI (UACC-62 melanoma): 31.1 µM | TGI (OVCAR-8 ovarian): 40.9 µM | TGI (MOLT-4 leukemia): > 66.2 µM | TGI (M14 melanoma): 24.2 µM | TGI (SNB-75 CNS): 30.8 µM | TGI (K-562 leukemia): 36.9 µM | TGI (CAKI-1 renal): 15.7 µM | TGI (MALME-3M melanoma): 56.3 µM | TGI (NCI-H226 lung): 18.7 µM | TGI (HCC-2998 colon): 24.1 µM | TGI (OVCAR-5 ovarian): > 100 µM | TGI (COLO 205 colon): 6.15 µM | TGI (CCRF-CEM leukemia): 33.8 µM | TGI (DU-145 prostate): 53.9 µM | TGI (SK-OV-3 ovarian): 42.8 µM | TGI (SF-539 CNS): 8.65 µM | TGI (MDA-MB-435): > 100 µM | TGI (SK-MEL-2 melanoma): 65.3 µM | TGI (SNB-19 CNS): > 100 µM | TGI (NCI-H522 lung): 5.6 µM | TGI (MDA-N): 4.69 µM | TGI (NCI/ADR-RES ovarian): 6.4 µM | TGI (A498 renal): 18.8 µM | TGI (SF-295 CNS): 14.1 µM | TGI (SK-MEL-5 melanoma): 16.9 µM | TGI (MDA-MB-231 breast): 19.2 µM

COc1cccc(-c2cc(=O)c3cc(OC)c(OC)cc3[nH]2)c1
TGI (IGROV1 ovarian): > 100 µM | TGI (UO-31 renal): > 100 µM | TGI (SK-MEL-28 melanoma): > 100 µM | TGI (KM12 colon): > 100 µM | GI50 (HCT-116 colon): 59.2 µM | TGI (HCT-116 colon): > 100 µM | TGI (U251 CNS): > 100 µM | TGI (DLD-1 colon): > 100 µM | TGI (SN12C renal): > 100 µM | TGI (NCI-H460 lung): > 100 µM | GI50 (DMS 114 small cell lung): 54.4 µM | TGI (DMS 114 small cell lung): > 100 µM | TGI (786-0 renal): > 100 µM | TGI (LOX IMVI melanoma): > 100 µM | TGI (HOP-62 NSCLC): > 100 µM | GI50 (SF-268 CNS): 49.6 µM | TGI (SF-268 CNS): > 100 µM | TGI (LXFL 529 NSCLC): > 100 µM | TGI (TK-10 renal): > 100 µM | TGI (ACHN renal): > 100 µM | TGI (HT29 colon): > 100 µM | TGI (SR leukemia): > 100 µM | GI50 (RXF 393 renal): 33.3 µM | TGI (RXF 393 renal): > 100 µM | TGI (EKVX NSCLC): > 100 µM | TGI (RPMI-8226 leukemia): > 100 µM | GI50 (OVCAR-3 ovarian): 33.5 µM | TGI (OVCAR-3 ovarian): > 100 µM | TGI (HL-60(TB) leukemia): > 100 µM | TGI (HCT-15 colon): > 100 µM | TGI (A549 NSCLC): > 100 µM | TGI (NCI-H23 lung): > 100 µM | TGI (UACC-257 melanoma): > 100 µM | TGI (SW-620 colon): > 100 µM | TGI (UACC-62 melanoma): > 100 µM | TGI (OVCAR-8 ovarian): > 100 µM | TGI (SNB-78 CNS): > 100 µM | TGI (MOLT-4 leukemia): > 100 µM | TGI (M14 melanoma): > 100 µM | TGI (SNB-75 CNS): > 100 µM | TGI (K-562 leukemia): > 100 µM | TGI (MALME-3M melanoma): > 100 µM | TGI (DMS 273 small cell lung): > 100 µM | TGI (M19-MEL melanoma): > 100 µM | GI50 (NCI-H226 lung): 21.5 µM | TGI (NCI-H226 lung): 79.8 µM | TGI (HCC-2998 colon): > 100 µM | TGI (COLO 205 colon): > 100 µM | TGI (CCRF-CEM leukemia): > 100 µM | TGI (SK-OV-3 ovarian): > 100 µM | TGI (SF-539 CNS): 77.3 µM | TGI (SNB-19 CNS): > 100 µM | TGI (NCI-H522 lung): 42.4 µM | TGI (KM20L2 colon): > 100 µM | GI50 (SF-295 CNS): 40.3 µM | TGI (SF-295 CNS): > 100 µM

COc1cc(N(CCC#N)CCC#N)ccc1/C=C1\SC(=S)NC1=O
TGI (HS 578T breast): > 100 µM | TGI (IGROV1 ovarian): > 100 µM | TGI (HOP-92 NSCLC): > 100 µM | TGI (BT-549 breast): > 100 µM | TGI (UO-31 renal): > 100 µM | TGI (SK-MEL-28 melanoma): > 100 µM | TGI (KM12 colon): > 100 µM | TGI (HCT-116 colon): > 100 µM | TGI (MCF7 breast): > 100 µM | TGI (U251 CNS): > 100 µM | TGI (SN12C renal): > 100 µM | TGI (NCI-H460 lung): > 100 µM | TGI (PC-3 prostate): > 100 µM | TGI (T-47D breast): > 100 µM | TGI (786-0 renal): > 100 µM | TGI (LOX IMVI melanoma): > 100 µM | TGI (OVCAR-4 ovarian): > 100 µM | TGI (HOP-62 NSCLC): > 100 µM | TGI (SF-268 CNS): > 100 µM | TGI (TK-10 renal): > 100 µM | TGI (ACHN renal): > 100 µM | TGI (HT29 colon): > 100 µM | TGI (SR leukemia): > 100 µM | TGI (RXF 393 renal): > 100 µM | TGI (EKVX NSCLC): > 100 µM | TGI (RPMI-8226 leukemia): > 100 µM | TGI (OVCAR-3 ovarian): > 100 µM | TGI (HL-60(TB) leukemia): > 100 µM | TGI (HCT-15 colon): > 100 µM | TGI (A549 NSCLC): > 100 µM | TGI (NCI-H23 lung): > 100 µM | TGI (UACC-257 melanoma): > 100 µM | TGI (SW-620 colon): > 100 µM | TGI (UACC-62 melanoma): > 100 µM | TGI (OVCAR-8 ovarian): > 100 µM | TGI (MOLT-4 leukemia): > 100 µM | TGI (M14 melanoma): > 100 µM | TGI (SNB-75 CNS): > 100 µM | TGI (K-562 leukemia): > 100 µM | TGI (CAKI-1 renal): > 100 µM | TGI (MALME-3M melanoma): > 100 µM | TGI (NCI-H226 lung): > 100 µM | TGI (HCC-2998 colon): > 100 µM | TGI (OVCAR-5 ovarian): > 100 µM | TGI (COLO 205 colon): > 100 µM | TGI (CCRF-CEM leukemia): > 100 µM | TGI (DU-145 prostate): > 100 µM | TGI (SK-OV-3 ovarian): > 100 µM | TGI (SF-539 CNS): > 100 µM | TGI (MDA-MB-435): > 100 µM | TGI (SK-MEL-2 melanoma): > 100 µM | TGI (SNB-19 CNS): > 100 µM | TGI (NCI-H522 lung): > 100 µM | TGI (MDA-N): > 100 µM | TGI (NCI/ADR-RES ovarian): > 100 µM | TGI (A498 renal): > 100 µM | TGI (SF-295 CNS): > 100 µM | TGI (SK-MEL-5 melanoma): > 100 µM | TGI (MDA-MB-231 breast): > 100 µM
